Where two headings read alike, the source gives them in different places.
Key:
[1] = log P determination by HPLC (EEC Directive 79/831 Annex V.A8); format: physicochemical
Protocol: The measurements were carried out using an Agilent 1100 LC system with a 50*4.6 Zorbax Eclipse C18 1.8 μm column (oven temperature 55° C., flow rate 2.0 ml/min).
The following mobile phases were used:
Mobile phase A: acetonitrile+1000 μl of formic acid/l
Mobile phase B: Millipore water+900 μl of formic acid/l

[2] = tested on: caterpillars of the armyworm (Spodoptera frugiperda); experiment: Spodoptera frugiperda test (SPODFR spray treatment); format: in vivo; details: Spodoptera frugiperda, foliar, read-out: effect in % (caterpillars killed)
Source text: (§1) Solvent: 78.0 parts by weight of acetone

[3] = tested on: larvae of the mustard beetle (Phaedon cochleariae); experiment: Phaedon test (PHAECO spray treatment); details: Phaedon cochleariae, in Brassica rapa, foliar, read-out: effect in % (beetle larvae killed)
adult Musca domestica = experiment: Musca domestica test (MUSCDO); format: in vivo; details: treated sponge, read-out: kill in % (flies killed)
Protocol: Solvent: dimethyl sulphoxide
Vessels containing a sponge treated with the active compound preparation of the desired concentration are populated with adult Musca domestica.
After the desired period of time, the kill in % is determined.

[4] = tested on: green peach aphid (Myzus persicae); experiment: Myzus test (MYZUPE spray treatment); format: in vivo; details: Myzus persicae, foliar, read-out: effect in % (aphids killed)
Source text: Solvent: 78 parts by weight of acetone
as §1

[5] = reversed-phase HPLC, Zorbax Eclipse C18 column, by HPLC according to EEC Directive 79/831 Annex V.A8, read-out: log P
[6] = application rate 100 g/ha, maize leaf discs
[7] = application rate 100 g/ha, Chinese cabbage leaf discs
[8] = reversed-phase HPLC, Zorbax Eclipse C18 column, determined by HPLC according to EEC Directive 79/831 Annex V.A8, read-out: log P

Row | chromatographic logP [1, 5] | chromatographic logP [1, 8] | SMILES | chromatographic logP ([1]; log P) | pest or weed control at 100 g/ha ([2]; in Zea mays) [%] | pest or weed control at 100 g/ha [3] [%] | pest or weed control at 100 ppm (adult Musca domestica) [%] | pest or weed control at 100 g/ha ([4]; in Brassica rapa) [%] | pest or weed control at 100 g/ha [2, 6] [%] | pest or weed control at 100 g/ha [4, 7] [%] | pest or weed control at 20 g/ha ([4]; in Brassica rapa) [%]
1 |  |  | Cc1cc(C#N)cc(C(N)=O)c1NC(=O)c1cc(Cn2nnc(C(F)(F)C(F)(F)F)n2)nn1-c1ncccc1Cl [Example 137] | 2.83 | ≥ 80 | ≥ 80 | ≥ 80 |  |  |  | 
2 |  |  | Cc1cc(C#N)cc(C(=O)NC(C)(C)C)c1NC(=O)c1cc(Cn2nnc(C(F)(F)C(F)(F)F)n2)nn1-c1ncccc1Cl [Example 136] | 3.86 | ≥ 80 | ≥ 80 | ≥ 80 | ≥ 80 |  |  | 
3 |  |  | Cc1cc(Br)cc(C(=O)NC(C)C2CC2)c1NC(=O)c1cc(Cn2nnc(C(F)(F)C(F)(F)F)n2)nn1-c1ncccc1Cl (stereo not shown) [Example 144] | 4.29 | ≥ 80 | ≥ 80 | ≥ 80 |  |  |  | 
4 |  |  | Cc1cc(Cl)cc(C(=O)NCC#N)c1NC(=O)c1cc(Cn2nnc(C(F)(F)C(F)(F)F)n2)nn1-c1ncccc1Cl [Example 133] | 3.32 | ≥ 80 | ≥ 80 | ≥ 80 |  |  |  | 
5 |  |  | O=C(NC1CC1)c1cc(Cl)cc(Cl)c1NC(=O)c1cc(Cn2nnc(C(F)(F)C(F)(F)F)n2)nn1-c1ncccc1Cl [Example 151] | 3.57 | ≥ 80 | ≥ 80 | ≥ 80 |  |  |  | 
6 | 2.97 |  | Cc1cc(Cl)cc(C(N)=O)c1NC(=O)c1cc(Cn2nnc(C(F)(F)F)n2)nn1-c1ncccc1C(F)(F)F [Example 238] |  |  | ≥ 80 |  |  | ≥ 80 | ≥ 80 | 
7 |  |  | C#CC(C)NC(=O)c1cc(C#N)cc(C)c1NC(=O)c1cc(Cn2nnc(C(F)(F)F)n2)nn1-c1ncccc1Cl (stereo not shown) [Example 432] | 2.97 | ≥ 80 | ≥ 80 |  | ≥ 80 |  |  | 
8 |  | 2.88 | CCNC(=O)c1cc(Cl)cc(C)c1NC(=O)c1cc(Cn2nnnc2C(F)(F)F)nn1-c1ncccc1Br [Example 494] |  |  | ≥ 80 |  |  | ≥ 80 | ≥ 80 | 
9 |  | 3.29 | Cc1cc(Br)cc(C(=O)NC(C)C)c1NC(=O)c1cc(Cn2nnnc2C(F)(F)F)nn1-c1ncccc1C(F)(F)F [Example 459] |  |  | ≥ 80 |  |  | ≥ 80 | ≥ 80 | 
10 |  |  | Cc1cc(C#N)cc(C(=O)NC2(C)CCC2)c1NC(=O)c1cc(Cn2nnc(C(F)(F)F)n2)nn1-c1ncccc1Cl [Example 89] | 3.46 | ≥ 80 | ≥ 80 |  | ≥ 80 |  |  | 
11 |  |  | CC(C)NC(=O)c1cc(Cl)cc(Cl)c1NC(=O)c1cc(Cn2nnnc2C(F)F)nn1-c1ncccc1Cl [Example 466] | 2.71 | ≥ 80 | ≥ 80 |  | ≥ 80 |  |  | 
12 |  |  | Cc1cc(I)cc(C(=O)NC(C)(C)C)c1NC(=O)c1cc(Cn2nnnc2C(F)(F)F)nn1-c1ncccc1Cl [Example 183] | 3.74 | ≥ 80 | ≥ 80 |  | ≥ 80 |  |  | 
13 |  | 3.54 | Cc1cc(Cl)cc(C(=O)NC(C)C)c1NC(=O)c1cc(Cn2nnnc2C(F)(F)C(F)(F)F)nn1-c1ncccc1Br [Example 513] |  |  | ≥ 80 |  |  | ≥ 80 | ≥ 80 | 
14 |  |  | Cc1cc(C#N)cc(C(=O)NC2CCC2)c1NC(=O)c1cc(Cn2nnnc2C(F)(F)F)nn1-c1ncccc1Cl [Example 186] | 2.83 | ≥ 80 | ≥ 80 |  | ≥ 80 |  |  | 
15 |  |  | Cc1cc(Br)cc(C(=O)NC(C)(C)C)c1NC(=O)c1cc(Cn2nnc(C(F)(F)C(F)(F)F)n2)nn1-c1ncccc1Cl [Example 219] | 4.36 | ≥ 80 | ≥ 80 |  | ≥ 80 |  |  | 
16 |  |  | Cc1cc(Cl)cc(C(=O)NC(C)C2CC2)c1NC(=O)c1cc(Cn2nnnc2C(F)F)nn1-c1ncccc1Cl (stereo not shown) [Example 460] | 3.07 | ≥ 80 | ≥ 80 |  |  |  |  | ≥ 80
17 |  |  | Cc1cc(Br)cc(C(N)=O)c1NC(=O)c1cc(Cn2nnc(C(F)(F)F)n2)nn1-c1ncccc1Cl [Example 44] | 2.81 | ≥ 80 | ≥ 80 |  | ≥ 80 |  |  | 

Row | chromatographic logP [1, 5] | chromatographic logP [1, 8] | SMILES | chromatographic logP ([1]; log P) | pest or weed control at 100 g/ha ([2]; in Zea mays) [%] | pest or weed control at 100 g/ha [3] [%] | pest or weed control at 100 ppm (adult Musca domestica) [%] | pest or weed control at 100 g/ha ([4]; in Brassica rapa) [%] | pest or weed control at 100 g/ha [2, 6] [%] | pest or weed control at 100 g/ha [4, 7] [%] | pest or weed control at 20 g/ha ([4]; in Brassica rapa) [%]
18 |  |  | CSC[C@H](C)NC(=O)c1cc(I)cc(C)c1NC(=O)c1cc(Cn2nnc(C(F)(F)F)n2)nn1-c1ncccc1Cl [Example 74] | 3.9 | ≥ 80 | ≥ 80 |  | ≥ 80 |  |  | 
19 |  |  | C#CCNC(=O)c1cc(C#N)cc(C)c1NC(=O)c1cc(Cn2nnc(C(F)(F)F)n2)nn1-c1ncccc1Cl [Example 96] | 2.9 | ≥ 80 | ≥ 80 |  | ≥ 80 |  |  | 
20 |  | 3.16 | CCNC(=O)c1cc(I)cc(C)c1NC(=O)c1cc(Cn2nnnc2C(F)(F)F)nn1-c1ncccc1Br [Example 503] |  |  | ≥ 80 |  |  | ≥ 80 | ≥ 80 | 
21 |  |  | Cc1cc(C#N)cc(C(=O)NC(C)(C)C)c1NC(=O)c1cc(Cn2nnc(C(F)(F)F)n2)nn1-c1ncccc1Cl [Example 15] | 3.4 | ≥ 80 | ≥ 80 |  | ≥ 80 |  |  | 
22 | 3.49 |  | Cc1cc(Cl)cc(C(=O)NC(C)C)c1NC(=O)c1cc(Cn2nnc(C(F)(F)F)n2)nn1-c1ncccc1Br [Example 334] |  |  | ≥ 80 |  |  | ≥ 80 | ≥ 80 | 
23 |  |  | Cc1cc(I)cc(C(=O)NC2CCC2)c1NC(=O)c1cc(Cn2nnc(C(F)F)n2)nn1-c1ncccc1Cl [Example 280] | 3.34 | ≥ 80 | ≥ 80 |  | ≥ 80 |  |  | 
24 |  | 2.47 | CNC(=O)c1cc(C#N)cc(C)c1NC(=O)c1cc(Cn2nnnc2C(F)(F)F)nn1-c1ncccc1Br [Example 477] |  |  | ≥ 80 |  |  | ≥ 80 | ≥ 80 | 
25 |  |  | Cc1cc(F)cc(C(=O)NCC#N)c1NC(=O)c1cc(Cn2nnc(C(F)(F)F)n2)nn1-c1ncccc1Cl [Example 53] | 2.67 | ≥ 80 | ≥ 80 |  | ≥ 80 |  |  | 
26 |  | 3.18 | COCCNC(=O)c1cc(C#N)cc(C)c1NC(=O)c1cc(Cn2nnc(C(F)(F)F)n2)nn1-c1ccccc1Cl [Example 435] |  |  | ≥ 80 |  |  | ≥ 80 | ≥ 80 | 
27 |  | 3.5 | Cc1cc(C#N)cc(C(=O)NC(C)C)c1NC(=O)c1cc(Cn2nnnc2C(F)(C(F)(F)F)C(F)(F)F)nn1-c1ncccc1Cl [Example 500] |  |  | ≥ 80 |  |  | ≥ 80 | ≥ 80 | 
28 |  | 3.88 | Cc1cc(C#N)cc(C(=O)NC(C)(C)C)c1NC(=O)c1cc(Cn2nnc(C(F)(F)F)n2)nn1-c1c(F)cccc1Cl [Example 528] |  |  | ≥ 80 |  |  | ≥ 80 | ≥ 80 | 
29 |  |  | Cc1cc(Cl)cc(C(=O)NC(C)C)c1NC(=O)c1cc(Cn2nnc(C(F)(F)C(F)(F)F)n2)nn1-c1ncccc1Cl [Example 129] | 3.94 | ≥ 80 | ≥ 80 |  | ≥ 80 |  |  | 
30 |  | 2.88 | Cc1cc(C#N)cc(C(=O)NC(C)C)c1NC(=O)c1cc(Cn2nnc(C(F)(F)F)n2)nn1-c1ncccc1F [Example 406] |  |  | ≥ 80 |  |  | ≥ 80 | ≥ 80 | 
31 |  |  | Cc1cc(C#N)cc(C(=O)NC2CC2)c1NC(=O)c1cc(Cn2nnnc2C(F)(F)F)nn1-c1ncccc1Cl [Example 166] | 2.53 | ≥ 80 | ≥ 80 |  | ≥ 80 |  |  | 
32 |  |  | CNC(=O)c1cc(Cl)cc(C)c1NC(=O)c1cc(Cn2nnc(C3CC3)n2)nn1-c1ncccc1Cl [Example 104] | 2.52 | ≥ 80 | ≥ 80 |  | ≥ 80 |  |  | 
33 |  |  | COCCNC(=O)c1cc(C#N)cc(C)c1NC(=O)c1cc(Cn2nnc(C(F)(F)F)n2)nn1-c1ncccc1Cl [Example 92] | 2.73 | ≥ 80 | ≥ 80 |  | ≥ 80 |  |  | 

From US8324390B2, “Tetrazole-substituted anthranilamides as pesticides” (Bayer CropScience AG, priority 2008, dated 2012)
